The values that follow come from PMC8863579, “Effects of pharmacological inhibition of the sodium‐dependent phosphate cotransporter 2b (NPT2b) on intestinal phosphate absorption in mouse and rat models” (Pharmacology Research & Perspectives, 2022).

Like-named read-outs stand apart in the source and are kept apart here.

This experiment concerns the target T1, intestinal NPT2b (Mus musculus, UniProt Q9DBP0).
T1 construct: from tissue; host or cells: intestine of live male C57BL/6 mice, oral dosing
T1 sequence (Q9DBP0 1-697): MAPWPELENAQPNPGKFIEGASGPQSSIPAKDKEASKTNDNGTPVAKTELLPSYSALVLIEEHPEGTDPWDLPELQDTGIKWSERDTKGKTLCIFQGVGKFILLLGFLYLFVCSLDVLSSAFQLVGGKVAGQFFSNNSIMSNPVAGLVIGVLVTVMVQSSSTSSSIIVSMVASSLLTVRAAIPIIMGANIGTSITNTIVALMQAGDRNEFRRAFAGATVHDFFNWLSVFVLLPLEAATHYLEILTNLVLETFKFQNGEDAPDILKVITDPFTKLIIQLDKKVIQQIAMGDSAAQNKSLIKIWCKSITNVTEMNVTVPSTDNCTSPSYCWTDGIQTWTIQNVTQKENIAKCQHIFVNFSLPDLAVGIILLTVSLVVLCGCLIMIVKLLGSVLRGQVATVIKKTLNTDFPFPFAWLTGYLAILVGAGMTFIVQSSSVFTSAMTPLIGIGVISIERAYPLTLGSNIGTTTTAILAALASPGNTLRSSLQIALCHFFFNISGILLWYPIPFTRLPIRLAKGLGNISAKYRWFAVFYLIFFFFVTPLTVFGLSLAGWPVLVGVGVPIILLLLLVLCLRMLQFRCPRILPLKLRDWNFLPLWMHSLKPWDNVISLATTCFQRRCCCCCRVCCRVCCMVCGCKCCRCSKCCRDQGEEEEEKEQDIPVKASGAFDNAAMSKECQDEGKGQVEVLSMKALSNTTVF
The experiment can be described thus: Acute phosphate uptake into plasma in mice. Type of experiment: in vivo. Conditions: for ED50: mouse, po, read-out: ED50, inhibition of acute phosphate uptake into plasma; for Emax, maximum inhibition of phosphate uptake into plasma: oral. On the procedure:
Male C57BL/6 male mice (n = 7–9/group) at the age of about 8–9 weeks (21–29 g) were fasted overnight and throughout the study. Mice were dosed orally with varying doses of LY3358966 SDD dissolved in water or a PVP‐VA vehicle control. Fifteen minutes later, a radioactive phosphate dosing solution (200 µl of 16.25 mM Na2HPO4, 0.9% saline, pH 7.4 supplemented with about one million dpm of H3 ^33PO4) was given by oral gavage. This dose of phosphate was chosen because it approximates the mouse equivalent of the amount of bioavailable phosphate in a human meal which is 4 mg/kg phosphorus, or 320 mg phosphorus for an 80 kg person on a phosphate restricted diet. Fifteen minutes later, blood was collected and radioactivity in the plasma was determined by scintillation counting. The inhibition of acute phosphate uptake into plasma by LY3358966 was determined by comparing the counts in the plasma from LY3358966‐treated animals to that in the plasma of the vehicle‐treated animals. ED50 values were then determined with a 4‐parameter logistic curve fitting model using GraphPad Prism 7.04.
To test the ability of LY3358966 to inhibit intestinal NPT2b activity in mice over time, the above mice were bled again at 3 h post compound dose to determine the residual radioactivity in the plasma. At 4 h post compound dose, the animals were again dosed with phosphate using threefold more H3 ^33PO4 than used in the first oral dose. Fifteen minutes later, blood was collected and radioactivity in the plasma was used to calculate LY3358966 inhibition of phosphate uptake into plasma. For this calculation, the residual counts at 3 h were first subtracted from the final counts at 4 h. The 3‐h counts were typically <15% of the 4‐h counts.

With `CC1(C)CN(C(=O)NCCCCO)CCN1Cc1cccc(C(=O)Nc2sc3c(c2C(=O)Nc2cc(F)c(CCc4ccc(C(=O)O)cc4)c(F)c2)CCCC3)c1` [LY3358966, 4‐[2‐[2,6‐difluoro‐4‐[[2‐[[3‐[[4‐(4‐hydroxybutylcarbamoyl)‐2,2‐dimethyl‐piperazin‐1‐yl]methyl]benzoyl]amino]‐4,5,6,7‐tetrahydrobenzothiophene‐3‐carbonyl]amino]phenyl]ethyl]benzoic acid], the ED50 (commonly the dose that gives a 50% effect, or the effect in half of the subjects) was 0.15 mg/kg (15 min post LY3358966 dose) and 1.1 mg/kg (4 h post LY3358966 dose). Moreover, the “Emax, maximum inhibition of phosphate uptake into plasma” value reads like this: (15 min post LY3358966 dose) 74%; (4 h post LY3358966 dose) 79%.
